Read-outs that look alike come from different tables or passages of the source.
System: HIV-1 LAI envelope single-round infectious reporter virus
Test: Single-round infectious luciferase reporter virus infection of MT2 cells (HIV-1 LAI envelope)
Assay type: cell-based
Details: Human immunodeficiency virus 1, MT2, 72 h
Description: Human embryonic Kidney cell line, 293T (HEK 293T), was propagated in Dulbecco's Modified Eagle Medium (Invitrogen, Carlsbad, Calif.) containing 10% fetal Bovine serum (FBS, Sigma, St. Louis, Mo.). The human T-cell leukemia cell MT2 (AIDS Research and Reference Reagent Program, Cat. 237) was propagated in RPMI 1640 (Invitrogen, Carlsbad, Calif.) containing 10% fetal bovine serum (FBS, Hyclone, Logan, Utah)
Single-round infectious reporter virus was produced by co-transfecting HEK 293T cells with plasmide expressing the HIV-1 LAI envelope along with a plasmid containing an HIV-1 LAI proviral cDNA with the envelope gene replaced by a firefly luciferase reporter gene (Chen et al, Ref 41). Transfections were performed using lipofectAMINE PLUS reagent as described by the manufacturer (Invitrogen, Carlsbad, Calif.).
• 1. MT2 cells were plated in black, 384 well plates at a cell density of 5×10^3 cells per well in 25 μl RPMI 1640 containing 10% FBS. • 2. Compound (diluted in dimethylsulfoxide and growth medium) was added to cells at 12.5 μl/well, so that the final assay concentration would be ≦50 nM. • 3. 12.5 μl of single-round infectious reporter virus in Dulbecco's Modified Eagle Medium was added to the plated cells and compound at an approximate multiplicity of infection (MOI) of 0.01, resulting in a final volume of 50 μl per well. • 4. Virus-infected cells were incubated at 37 degrees Celsius, in a CO2 incubator, and harvested 72 h after infection. • 5. Viral infection was monitored by measuring luciferase expression in the infected cells using a luciferase reporter gene assay kit (Steady-Glo, Promega, Madison, Wis.) as described by the manufacturer. Luciferase activity was then quantified by measuring luminescence using an EnVision Multilabel Plate Readers (PerkinElmer, Waltham, Mass.). • 6. The percent inhibition for each compound was calculated by quantifying the level of luciferase expression in cells infected in the presence of each compound as a percentage of that observed for cells infected in the absence of compound and subtracting such a determined value from 100. • 7. An EC50 provides a method for comparing the antiviral potency of the compounds of this disclosure. The effective concentration for fifty percent inhibition (EC50) was calculated with the Microsoft Excel Xlfit curve fitting software. For each compound, curves were generated from percent inhibition calculated at 10 different concentrations by using a four parameter logistic model (model 205). Table 1 is the key for the data in Table 2.

[1] = read-out: EC50 Group from Table 1

Row | SMILES | EC50 [1] | EC50
1 | O=C(C(=O)N1CC2CN(c3nnnn3-c3ccccc3)CC2C1)c1c[nH]c2c(-n3ccnn3)ncc(F)c12 (stereo not shown) [Compound 1001, 1-(4-fluoro-7-(1H-1,2,3-triazol-1-yl)-1H-pyrrolo[2,3-c]pyridin-3-yl)-2-(5-(1-phenyl-1H-tetrazol-5-yl)hexahydropyrrolo[3,4-c]pyrrol-2(1H)-yl)ethane-1,2-dione] | < 500 nM | –
2 | COc1cnc(-n2cnc(C)n2)c2[nH]cc(C(=O)C(=O)N3CC4CN(c5nnnn5-c5ccccc5)CC4C3)c12 (stereo not shown) [Compound 1002, 1-(4-methoxy-7-(3-methyl-1H-1,2,4-triazol-1-yl)-1H-pyrrolo[2,3-c]pyridin-3-yl)-2-(5-(1-phenyl-1H-tetrazol-5-yl)hexahydropyrrolo[3,4-c]pyrrol-2(1H)-yl)ethane-1,2-dione] | < 500 nM | 1.41 nM
3 | COc1cnc(-n2cnc(C)n2)c2[nH]cc(C(=O)C(=O)N3CC4CN(Cc5ccccc5)CC4C3)c12 (stereo not shown) [Compound 2001] | < 500 nM | –
4 | O=C(C(=O)N1CC2CN(Cc3ccccc3)CC2C1)c1c[nH]c2c(-n3ccnn3)ncc(F)c12 (stereo not shown) [Compound 2003] | > 500 nM | –
5 | O=C(C(=O)N1CC2CN(C(=O)c3ccccc3)CC2C1)c1c[nH]c2c(-n3ccnn3)ncc(F)c12 (stereo not shown) [Compound 2005] | < 500 nM | –
6 | COc1cnc(-n2cnc(C)n2)c2[nH]cc(C(=O)C(=O)N3CC4CN(C(=O)c5ccccc5)CC4C3)c12 (stereo not shown) [Compound 2006] | < 500 nM | 0.68 nM
7 | CN(C)C(=O)N1CC2CN(C(=O)C(=O)c3c[nH]c4c(-n5ccnn5)ncc(F)c34)CC2C1 (stereo not shown) [Compound 3001, 5-(2-(4-fluoro-7-(1H-1,2,3-triazol-1-yl)-1H-pyrrolo[2,3-c]pyridin-3-yl)-2-oxoacetyl)-N,N-dimethylhexahydropyrrolo[3,4-c]pyrrole-2(1H)-carboxamide] | < 500 nM | –
8 | COc1cnc(-n2cnc(C)n2)c2[nH]cc(C(=O)C(=O)N3CC4CN(C(=O)N(C)C)CC4C3)c12 (stereo not shown) [Compound 3002, 5-(2-(4-methoxy-7-(3-methyl-1H-1,2,4-triazol-1-yl)-1H-pyrrolo[2,3-c]pyridin-3-yl)-2-oxoacetyl)-N,N-dimethylhexahydropyrrolo[3,4-c]pyrrole-2(1H)-carboxamide] | < 500 nM | –
